# Calls of active or inactive are those of the source.
# How the values were obtained:
# Mucolipin-3 = Mucolipin-3 (Homo sapiens, UniProt Q8TDD5); experiment: Dose response cell-based high-throughput screening assay for agonists of the transient receptor potential channel ML3 (TRPML3). [Related pubchem assays: 1526, 1424, 1448 ]; type: functional
# [1] = NIH3T3 cell viability loss – ATP luminescence, mouse fibroblasts, counter-screen, dose response (AID 2010); type: functional, cell-based;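 note: cells exposed to compound for about 90 hours before reading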
# Ion channel NompC = Ion channel NompC (Danio rerio, UniProt Q7T1G6); experiment: Fluorescence counterscreen assay for TRPML3 agonists: dose response cell-based high-throughput screening assay to identify agonists of the transient receptor potential channel N1 (TRPN1). [Related pubchem assays: 1526, 1424, 1448 ]; type: functional
# [2] = Trypanosoma cruzi growth suppression in host cells – NIH3T3 host cells, beta-gal luminescence, confirmation (AID 2044); type: functional, cell-based;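 note: intracellular parasites grown in NIH/3T3 mouse fibroblasts as host cells; luminescent beta-galactosidase reporter signal from transgenic T. cruzi replicating inside host cells; inhibitors lower the luminescence signal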
# [3] = target: T1, Replicative DNA helicase DnaB (Mycobacterium tuberculosis, UniProt P9WMR3); experiment: DnaB intein splicing inhibitors, dose response, biochemical, cell-free fluorescence (AID 449749); type: functional
# T1 sequence (P9WMR3 whole entry): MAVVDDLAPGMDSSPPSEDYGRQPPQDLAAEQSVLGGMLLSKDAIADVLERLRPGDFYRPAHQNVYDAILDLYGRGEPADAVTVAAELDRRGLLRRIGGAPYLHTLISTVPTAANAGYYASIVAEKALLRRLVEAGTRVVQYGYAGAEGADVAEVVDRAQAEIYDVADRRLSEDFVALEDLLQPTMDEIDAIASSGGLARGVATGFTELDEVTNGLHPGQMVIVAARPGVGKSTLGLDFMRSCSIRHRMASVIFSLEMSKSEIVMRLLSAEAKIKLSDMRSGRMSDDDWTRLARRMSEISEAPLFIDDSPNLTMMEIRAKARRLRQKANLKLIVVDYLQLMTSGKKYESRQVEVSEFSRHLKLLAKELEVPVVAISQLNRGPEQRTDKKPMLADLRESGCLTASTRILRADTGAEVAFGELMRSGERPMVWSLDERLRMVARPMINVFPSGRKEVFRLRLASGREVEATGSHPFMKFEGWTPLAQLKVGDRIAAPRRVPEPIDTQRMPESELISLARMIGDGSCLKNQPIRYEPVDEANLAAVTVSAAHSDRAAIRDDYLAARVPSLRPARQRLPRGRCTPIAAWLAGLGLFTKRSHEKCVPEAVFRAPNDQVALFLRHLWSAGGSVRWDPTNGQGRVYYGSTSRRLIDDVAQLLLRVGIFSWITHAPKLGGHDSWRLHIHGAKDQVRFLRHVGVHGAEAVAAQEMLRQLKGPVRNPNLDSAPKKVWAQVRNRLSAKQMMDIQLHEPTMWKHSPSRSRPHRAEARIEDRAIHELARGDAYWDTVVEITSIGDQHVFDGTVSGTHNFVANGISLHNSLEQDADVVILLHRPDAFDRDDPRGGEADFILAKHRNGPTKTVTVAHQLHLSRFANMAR
# [4] = target: T2, Sentrin-specific protease 8 (Homo sapiens, UniProt Q96LD8); type: functional
# T2 sequence (Q96LD8 whole entry): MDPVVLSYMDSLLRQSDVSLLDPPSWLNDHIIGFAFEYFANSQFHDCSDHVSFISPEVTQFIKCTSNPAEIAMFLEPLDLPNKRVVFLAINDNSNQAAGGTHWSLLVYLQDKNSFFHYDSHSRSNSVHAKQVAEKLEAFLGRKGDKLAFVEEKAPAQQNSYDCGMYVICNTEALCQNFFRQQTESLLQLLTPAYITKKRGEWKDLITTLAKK
# [5] = target: T3, Apoptotic protease-activating factor 1 (Homo sapiens, UniProt O14727); type: functional
# T3 sequence (O14727 whole entry): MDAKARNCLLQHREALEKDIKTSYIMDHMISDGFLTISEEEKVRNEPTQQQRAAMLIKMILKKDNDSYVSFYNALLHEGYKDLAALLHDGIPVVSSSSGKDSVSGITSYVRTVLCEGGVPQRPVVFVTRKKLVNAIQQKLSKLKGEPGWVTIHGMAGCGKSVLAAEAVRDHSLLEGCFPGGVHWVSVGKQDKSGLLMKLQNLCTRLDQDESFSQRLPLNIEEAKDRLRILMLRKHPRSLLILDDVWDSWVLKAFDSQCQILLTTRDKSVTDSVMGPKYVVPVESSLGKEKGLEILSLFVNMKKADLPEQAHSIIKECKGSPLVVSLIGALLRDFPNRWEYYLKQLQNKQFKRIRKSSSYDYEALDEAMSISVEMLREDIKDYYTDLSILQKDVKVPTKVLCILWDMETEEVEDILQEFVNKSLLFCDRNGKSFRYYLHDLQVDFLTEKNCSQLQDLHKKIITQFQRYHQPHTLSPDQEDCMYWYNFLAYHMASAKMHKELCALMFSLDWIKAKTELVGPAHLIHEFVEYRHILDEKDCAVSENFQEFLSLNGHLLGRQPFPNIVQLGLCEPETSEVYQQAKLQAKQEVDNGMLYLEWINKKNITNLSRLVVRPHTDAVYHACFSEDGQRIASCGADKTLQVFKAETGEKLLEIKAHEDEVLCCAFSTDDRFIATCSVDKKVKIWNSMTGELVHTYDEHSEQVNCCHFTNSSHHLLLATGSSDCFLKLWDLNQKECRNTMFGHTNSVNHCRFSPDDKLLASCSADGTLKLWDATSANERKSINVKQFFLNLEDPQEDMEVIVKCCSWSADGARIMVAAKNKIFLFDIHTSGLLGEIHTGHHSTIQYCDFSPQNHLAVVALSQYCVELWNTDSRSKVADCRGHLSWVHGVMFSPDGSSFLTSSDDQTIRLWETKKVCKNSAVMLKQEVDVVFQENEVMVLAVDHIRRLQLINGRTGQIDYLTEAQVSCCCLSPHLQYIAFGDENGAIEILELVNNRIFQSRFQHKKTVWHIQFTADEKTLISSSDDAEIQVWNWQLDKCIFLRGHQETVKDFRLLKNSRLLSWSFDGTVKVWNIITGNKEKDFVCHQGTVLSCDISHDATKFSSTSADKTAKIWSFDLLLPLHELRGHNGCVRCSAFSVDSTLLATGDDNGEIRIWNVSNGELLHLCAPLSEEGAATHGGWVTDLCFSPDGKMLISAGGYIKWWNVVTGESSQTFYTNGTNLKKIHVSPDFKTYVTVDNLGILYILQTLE
# Protein RecA = target: T4, Protein RecA (Mycobacterium tuberculosis, UniProt P9WHJ3); experiment: Fluorescence Cell-Free Homogeneous Dose Retest to Identify Inhibitors of RecA-Intein Splicing Activity. [Related pubchem assays (depositor defined):AID2097, AID2223, AID489010, AID492950]; type: functional
# T4 sequence (P9WHJ3 whole entry): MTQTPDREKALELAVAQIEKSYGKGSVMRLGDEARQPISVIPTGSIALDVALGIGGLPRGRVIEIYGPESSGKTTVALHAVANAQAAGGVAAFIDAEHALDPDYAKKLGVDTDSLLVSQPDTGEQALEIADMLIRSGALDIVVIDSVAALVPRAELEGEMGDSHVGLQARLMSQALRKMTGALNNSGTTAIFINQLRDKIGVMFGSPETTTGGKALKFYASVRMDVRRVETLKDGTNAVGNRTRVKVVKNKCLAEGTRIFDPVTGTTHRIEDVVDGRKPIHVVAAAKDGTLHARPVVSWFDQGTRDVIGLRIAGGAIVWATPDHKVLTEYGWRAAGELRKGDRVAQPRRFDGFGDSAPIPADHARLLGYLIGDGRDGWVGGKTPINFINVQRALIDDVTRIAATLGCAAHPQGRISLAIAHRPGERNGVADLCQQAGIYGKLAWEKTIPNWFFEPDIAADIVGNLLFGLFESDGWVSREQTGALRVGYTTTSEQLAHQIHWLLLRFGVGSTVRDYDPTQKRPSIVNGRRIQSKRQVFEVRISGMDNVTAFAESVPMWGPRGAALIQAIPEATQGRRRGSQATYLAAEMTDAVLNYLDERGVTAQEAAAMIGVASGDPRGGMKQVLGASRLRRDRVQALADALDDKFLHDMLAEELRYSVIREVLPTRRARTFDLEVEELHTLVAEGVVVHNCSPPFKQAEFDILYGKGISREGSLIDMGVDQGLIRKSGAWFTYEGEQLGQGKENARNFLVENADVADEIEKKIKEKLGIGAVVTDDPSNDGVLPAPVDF
# [6] = target: Protein-tyrosine kinase 2-beta (Homo sapiens, UniProt Q14289);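 note: potency of inhibitors of PYK2 kinase phosphorylation of poly-GT substrate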
# [7] = target: T2, Sentrin-specific protease 8; type: functional; remark: listed apart in the source
# Bcl-2-like protein 10 = Bcl-2-like protein 10 (Homo sapiens, UniProt Q9HD36); experiment: Concentration-response of Bcl-B inhibitors by biochemical FP with TR3 (AID 1243); type: functional
# Chain of Bcl-2-like protein 10 (Q9HD36 whole entry): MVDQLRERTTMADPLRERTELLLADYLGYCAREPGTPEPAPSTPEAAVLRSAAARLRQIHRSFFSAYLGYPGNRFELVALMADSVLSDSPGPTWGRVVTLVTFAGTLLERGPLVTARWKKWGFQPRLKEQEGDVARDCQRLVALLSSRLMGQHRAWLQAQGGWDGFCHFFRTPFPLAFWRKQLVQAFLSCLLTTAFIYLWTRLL
# [8] = target: Lytic switch protein BZLF1 (Epstein-Barr virus (strain B95-8) (HHV-4) (Human herpesvirus 4), UniProt P03206); experiment: inhibition of BZLF1 ZTA DNA binding – biochemical, fluorescence polarization, Epstein-Barr virus, 1536-well, counter-screen for EBNA-1 inhibitor project, dose response (AID 2377); set-up: species or system human gammaherpesvirus 4;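 note: fluorescence polarization of Cy5-labelled ZRE DNA probe bound by purified Zta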
# Chain of Lytic switch protein BZLF1 (P03206 whole entry): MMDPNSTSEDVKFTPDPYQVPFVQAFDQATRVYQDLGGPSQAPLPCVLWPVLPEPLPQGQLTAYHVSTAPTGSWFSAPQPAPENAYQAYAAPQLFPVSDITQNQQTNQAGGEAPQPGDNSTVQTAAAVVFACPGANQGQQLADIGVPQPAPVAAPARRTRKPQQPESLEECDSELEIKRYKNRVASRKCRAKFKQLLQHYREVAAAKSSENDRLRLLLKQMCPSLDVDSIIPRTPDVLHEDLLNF
# [9] = target: Epstein-Barr nuclear antigen 1 (Epstein-Barr virus (strain B95-8) (HHV-4) (Human herpesvirus 4), UniProt P03211); experiment: inhibition of EBV nuclear antigen 1 DNA binding – biochemical, fluorescence polarization, 1536-well, dose response (AID 2381); set-up: species or system human gammaherpesvirus 4;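 note: fluorescence polarization of a Cy5 DNA probe bound by EBNA-1 protein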
# Chain of Epstein-Barr nuclear antigen 1 (P03211 whole entry): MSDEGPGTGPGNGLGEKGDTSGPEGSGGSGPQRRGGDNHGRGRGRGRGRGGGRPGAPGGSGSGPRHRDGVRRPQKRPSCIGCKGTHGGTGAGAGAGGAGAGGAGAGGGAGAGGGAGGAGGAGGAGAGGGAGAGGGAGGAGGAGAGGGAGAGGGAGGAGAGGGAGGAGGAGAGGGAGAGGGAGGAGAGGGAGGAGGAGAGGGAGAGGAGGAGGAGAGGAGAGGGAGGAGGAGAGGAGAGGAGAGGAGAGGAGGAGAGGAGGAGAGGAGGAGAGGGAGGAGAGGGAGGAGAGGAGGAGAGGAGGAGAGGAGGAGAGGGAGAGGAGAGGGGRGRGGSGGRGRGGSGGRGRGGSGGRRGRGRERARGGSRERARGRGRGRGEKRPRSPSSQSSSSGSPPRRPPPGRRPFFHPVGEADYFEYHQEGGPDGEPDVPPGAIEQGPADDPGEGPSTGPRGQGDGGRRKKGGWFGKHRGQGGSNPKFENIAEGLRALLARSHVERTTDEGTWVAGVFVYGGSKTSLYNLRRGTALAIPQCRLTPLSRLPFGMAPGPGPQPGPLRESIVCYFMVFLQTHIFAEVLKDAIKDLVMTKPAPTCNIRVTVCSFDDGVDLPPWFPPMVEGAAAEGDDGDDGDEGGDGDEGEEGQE
# [10] = target: 5-hydroxytryptamine receptor 1E (Homo sapiens, UniProt P28566); experiment: Counterscreen assay for S1P3 antagonists: Dose response cell-based high throughput screening assay to identify antagonists of the 5-Hydroxytryptamine Receptor Subtype 1E (5HT1E). [Related pubchem assays: 1429, 485 ]; type: functional
# Chain of 5-hydroxytryptamine receptor 1E (P28566 whole entry): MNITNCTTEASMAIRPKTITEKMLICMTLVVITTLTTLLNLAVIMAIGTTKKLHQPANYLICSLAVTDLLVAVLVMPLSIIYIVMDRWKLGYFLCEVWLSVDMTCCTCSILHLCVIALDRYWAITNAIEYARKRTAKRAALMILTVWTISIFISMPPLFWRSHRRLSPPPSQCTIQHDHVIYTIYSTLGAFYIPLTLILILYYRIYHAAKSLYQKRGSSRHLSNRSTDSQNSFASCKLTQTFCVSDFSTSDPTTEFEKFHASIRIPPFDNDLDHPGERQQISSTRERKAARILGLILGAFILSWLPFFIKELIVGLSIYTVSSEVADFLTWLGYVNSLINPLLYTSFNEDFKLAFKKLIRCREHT
# [11] = target: Sphingosine 1-phosphate receptor 3 (Homo sapiens, UniProt Q99500); experiment: Dose response cell-based high throughput screening assay for antagonists of the Sphingosine 1-Phosphate Receptor 3 (S1P3). [Related pubchem assays: 1429, 485 ]; type: functional
# Fatty acid synthase [12] = target: T5, Fatty acid synthase (Homo sapiens, UniProt P49327); experiment: inhibition of human FAS-TE enzyme activity – biochemical, endpoint fluorescence intensity, uHTS hits, dose response (AID 624327); type: functional;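 note: fluorescence from hydrolysis of an O-methyl fluorescein acyl ester substrate by the enzyme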
# T5 sequence (P49327 whole entry): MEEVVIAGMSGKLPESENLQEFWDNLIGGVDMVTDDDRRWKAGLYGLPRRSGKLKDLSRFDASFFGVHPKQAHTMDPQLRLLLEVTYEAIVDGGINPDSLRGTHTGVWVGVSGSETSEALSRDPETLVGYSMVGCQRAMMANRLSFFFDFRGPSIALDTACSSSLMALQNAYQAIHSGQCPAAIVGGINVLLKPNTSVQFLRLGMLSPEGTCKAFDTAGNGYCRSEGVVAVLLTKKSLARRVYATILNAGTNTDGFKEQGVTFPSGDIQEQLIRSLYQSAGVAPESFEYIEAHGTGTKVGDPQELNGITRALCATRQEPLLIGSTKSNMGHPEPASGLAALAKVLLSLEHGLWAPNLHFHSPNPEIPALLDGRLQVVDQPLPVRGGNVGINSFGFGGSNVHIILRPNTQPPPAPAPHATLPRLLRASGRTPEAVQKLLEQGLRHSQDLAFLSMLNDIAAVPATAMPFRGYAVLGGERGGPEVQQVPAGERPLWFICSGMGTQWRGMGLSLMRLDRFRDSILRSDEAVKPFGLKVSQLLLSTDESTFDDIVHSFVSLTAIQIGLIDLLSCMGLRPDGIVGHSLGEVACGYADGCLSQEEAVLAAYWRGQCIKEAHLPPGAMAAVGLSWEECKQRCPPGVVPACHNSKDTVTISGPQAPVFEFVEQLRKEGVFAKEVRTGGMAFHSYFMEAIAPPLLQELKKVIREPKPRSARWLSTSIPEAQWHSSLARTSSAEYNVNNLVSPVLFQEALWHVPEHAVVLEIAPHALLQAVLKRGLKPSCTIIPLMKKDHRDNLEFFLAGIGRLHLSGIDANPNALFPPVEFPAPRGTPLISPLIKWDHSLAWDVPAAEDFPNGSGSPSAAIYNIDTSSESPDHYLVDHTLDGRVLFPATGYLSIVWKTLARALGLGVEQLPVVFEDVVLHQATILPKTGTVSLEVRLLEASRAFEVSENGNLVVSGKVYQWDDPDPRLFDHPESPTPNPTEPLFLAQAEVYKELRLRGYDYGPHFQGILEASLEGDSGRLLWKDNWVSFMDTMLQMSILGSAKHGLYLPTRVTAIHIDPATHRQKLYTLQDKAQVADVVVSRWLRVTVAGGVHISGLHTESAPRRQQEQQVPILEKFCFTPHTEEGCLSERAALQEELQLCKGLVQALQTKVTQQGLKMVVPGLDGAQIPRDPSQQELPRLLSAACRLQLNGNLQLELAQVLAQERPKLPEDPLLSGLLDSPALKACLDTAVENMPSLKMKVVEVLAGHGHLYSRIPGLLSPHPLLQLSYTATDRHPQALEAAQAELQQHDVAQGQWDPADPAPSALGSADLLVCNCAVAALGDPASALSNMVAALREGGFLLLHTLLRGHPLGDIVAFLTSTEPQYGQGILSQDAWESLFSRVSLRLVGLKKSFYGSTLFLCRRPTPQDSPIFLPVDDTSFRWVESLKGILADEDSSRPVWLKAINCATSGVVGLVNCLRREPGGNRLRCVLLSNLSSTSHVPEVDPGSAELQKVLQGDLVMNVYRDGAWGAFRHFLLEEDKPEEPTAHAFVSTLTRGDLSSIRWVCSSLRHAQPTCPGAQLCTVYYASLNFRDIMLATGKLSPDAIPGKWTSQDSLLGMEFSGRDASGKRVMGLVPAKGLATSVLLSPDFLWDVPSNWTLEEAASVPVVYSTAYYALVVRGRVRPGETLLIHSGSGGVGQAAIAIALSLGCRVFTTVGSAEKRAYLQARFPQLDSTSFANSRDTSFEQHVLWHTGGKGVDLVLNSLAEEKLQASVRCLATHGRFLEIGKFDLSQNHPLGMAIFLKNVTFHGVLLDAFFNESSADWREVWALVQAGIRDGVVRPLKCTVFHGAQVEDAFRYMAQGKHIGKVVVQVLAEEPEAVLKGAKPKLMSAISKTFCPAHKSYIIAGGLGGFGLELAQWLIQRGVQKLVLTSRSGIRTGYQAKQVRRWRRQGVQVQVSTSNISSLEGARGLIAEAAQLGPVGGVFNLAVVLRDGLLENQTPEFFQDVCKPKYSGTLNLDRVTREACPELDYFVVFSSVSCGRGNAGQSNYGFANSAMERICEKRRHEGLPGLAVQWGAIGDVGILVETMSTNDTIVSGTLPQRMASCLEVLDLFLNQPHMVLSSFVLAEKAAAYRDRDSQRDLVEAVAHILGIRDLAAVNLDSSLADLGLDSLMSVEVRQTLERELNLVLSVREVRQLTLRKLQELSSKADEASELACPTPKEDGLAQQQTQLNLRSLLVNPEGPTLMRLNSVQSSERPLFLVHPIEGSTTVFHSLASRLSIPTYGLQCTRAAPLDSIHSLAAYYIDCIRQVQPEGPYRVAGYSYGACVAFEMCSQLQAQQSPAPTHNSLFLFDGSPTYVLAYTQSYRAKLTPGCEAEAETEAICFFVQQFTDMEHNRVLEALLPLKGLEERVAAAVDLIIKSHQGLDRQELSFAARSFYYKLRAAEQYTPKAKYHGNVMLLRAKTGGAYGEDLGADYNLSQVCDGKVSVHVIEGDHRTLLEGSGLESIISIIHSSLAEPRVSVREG
# Fatty acid synthase [13] = target: T5, Fatty acid synthase; experiment: inhibition of human FAS-TE enzyme activity – biochemical, kinetic fluorescence intensity, dose response (AID 624326); type: functional;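 note: rate of fluorescence rise from hydrolysis of a fluorogenic O-methyl fluorescein ester substrate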
# [14] = CCR5-tropic HIV-1 fusion blockers – cell-based, CCR5-tropic Env, dose response (AID 2279); type: functional
# Streptococcus = experiment: GAS UMAA2166 growth inhibition – luminescence, BacTiterGlo, counter-screen for streptokinase expression inhibitor project, dose response (AID 1915); type: functional, organism-based;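 note: potency for reduction of bacterial viability or growth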
# Streptokinase A = target: T6, Streptokinase A (Streptococcus pyogenes serotype M1, UniProt P10520); experiment: viability-normalized secreted streptokinase activity reduction – plasminogen activation absorbance, OD405, dose response (AID 1914); type: functional, Streptococcus pyogenes M1 GAS;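 note: secreted streptokinase activity via plasminogen activation per viability signal from cell pellet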
# T6 sequence (P10520 whole entry): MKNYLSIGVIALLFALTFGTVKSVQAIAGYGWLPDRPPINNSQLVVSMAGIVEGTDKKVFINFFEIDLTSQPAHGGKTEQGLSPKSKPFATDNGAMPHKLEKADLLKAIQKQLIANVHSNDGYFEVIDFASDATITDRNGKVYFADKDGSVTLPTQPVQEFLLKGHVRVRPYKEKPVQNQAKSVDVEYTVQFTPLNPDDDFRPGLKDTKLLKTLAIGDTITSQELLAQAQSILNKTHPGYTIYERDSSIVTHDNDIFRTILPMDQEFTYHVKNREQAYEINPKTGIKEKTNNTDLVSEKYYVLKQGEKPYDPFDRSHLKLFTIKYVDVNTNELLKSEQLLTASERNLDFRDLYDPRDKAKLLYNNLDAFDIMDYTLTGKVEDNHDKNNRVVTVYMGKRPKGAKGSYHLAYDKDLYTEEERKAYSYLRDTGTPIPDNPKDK
# [15] = tested on: Streptococcus sp. 'group A'; experiment: Streptococcus pyogenes SK(-)GAS viability under kanamycin – luminescence, BacTiterGlo, confirmation, counter-screen for streptokinase expression inhibitor project, dose response (AID 1900); type: functional, organism-based
# [16] = target: Induced myeloid leukemia cell differentiation protein Mcl-1 (Homo sapiens, UniProt Q07820); type: functional
# [17] = antiviral protection against BTV-induced cell death – arbovirus, BSR cells, confirmation (AID 1250); type: functional;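 note: protection from viral cytopathic effect measured as cell viability by ATP luminescence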
# [18] = target: Neuropeptide Y receptor type 1 (Homo sapiens, UniProt P25929); type: functional;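 note: HEK293 cells with a CNG channel challenged with NPY then isoproterenol; potency as antagonist that reverses NPY suppression of cAMP signal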
# [19] = target: Neuropeptide Y receptor type 2 (Homo sapiens, UniProt P49146); type: functional, cell-based;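 note: HEK293 cells expressing the receptor and a CNG channel; stimulus was NPY near EC95 followed by isoproterenol to raise cAMP; antagonist potency measured as restoring cAMP signal that NPY suppresses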
# [20] = target: Sphingosine 1-phosphate receptor 2 (Homo sapiens, UniProt O95136); experiment: Dose Response Cell Based Assay for Agonists of the S1P2 Receptor of Purchased Analogues. [Related pubchem assays: 729, 843, 854, 736 ]; type: functional
# Chain of Sphingosine 1-phosphate receptor 2 (O95136 whole entry): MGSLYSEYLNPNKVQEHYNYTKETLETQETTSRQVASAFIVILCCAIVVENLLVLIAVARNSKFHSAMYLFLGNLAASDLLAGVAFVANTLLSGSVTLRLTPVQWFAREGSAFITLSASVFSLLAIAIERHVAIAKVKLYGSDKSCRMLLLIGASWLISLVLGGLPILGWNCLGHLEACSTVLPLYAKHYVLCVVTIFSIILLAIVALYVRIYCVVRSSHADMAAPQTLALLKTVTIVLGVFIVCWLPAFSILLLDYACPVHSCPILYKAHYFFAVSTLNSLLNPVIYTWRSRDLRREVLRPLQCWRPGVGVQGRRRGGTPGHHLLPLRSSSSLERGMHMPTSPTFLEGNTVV
# Chain of Mucolipin-3 (Q8TDD5 whole entry): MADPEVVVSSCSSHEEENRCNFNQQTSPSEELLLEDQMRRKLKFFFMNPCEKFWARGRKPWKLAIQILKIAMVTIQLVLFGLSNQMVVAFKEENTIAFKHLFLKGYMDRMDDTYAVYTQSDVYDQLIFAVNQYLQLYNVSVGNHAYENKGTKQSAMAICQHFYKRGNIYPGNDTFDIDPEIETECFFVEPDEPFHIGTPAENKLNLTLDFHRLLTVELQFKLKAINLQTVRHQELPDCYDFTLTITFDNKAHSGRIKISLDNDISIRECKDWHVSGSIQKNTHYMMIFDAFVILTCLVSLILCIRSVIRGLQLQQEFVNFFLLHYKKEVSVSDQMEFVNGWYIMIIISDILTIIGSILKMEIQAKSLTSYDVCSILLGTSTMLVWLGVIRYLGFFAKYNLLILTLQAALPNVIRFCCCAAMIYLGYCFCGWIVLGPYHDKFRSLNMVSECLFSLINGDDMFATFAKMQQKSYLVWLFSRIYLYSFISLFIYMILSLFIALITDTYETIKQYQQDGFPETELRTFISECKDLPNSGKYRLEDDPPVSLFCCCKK
compound,measurement,setting,value
CCN(CC)c1ccc(NC(=O)COc2ccc(N(C)S(=O)(=O)c3cccs3)cc2)cc1,EC50,Mucolipin-3,> 29.9 µM (not active)
same,EC50,[1],> 30 µM (not active)
same,EC50,Ion channel NompC,> 29.9 µM (not active)
same,EC50,[2],2.28 µM (active)
O=C1Cc2ccccc2C(=O)N1Cc1ccccc1,AC50,[3],> 380 µM (inconclusive)
same,IC50,[4],1.06 µM (active)
same,IC50,[5],3.89 µM (active)
same,EC50,Protein RecA,2.04 µM (active)
same,IC50,[6],> 69.5 µM (not active)
same,IC50,[7],> 100 µM (inactive)
O=C(O)c1ccc2c(c1)C1C=CCC1C(c1cccc([N+](=O)[O-])c1)N2 (stereo unspecified),EC50,Bcl-2-like protein 10,1.75 µM (active)
COC(=O)c1cccc(S(=O)(=O)N2CCC(NC(=O)Nc3cccc(F)c3)CC2)c1,IC50,[8],> 111 µM (not active)
same,IC50,[9],6.09 µM (active)
Cc1ccc(NC(=O)C2(c3ccc([N+](=O)[O-])cc3)CCCC2)cc1,IC50,[10],9.48 µM (active)
same,IC50,[11],6.92 µM (active)
same,IC50,Fatty acid synthase [12],14.6 µM (active)
same,IC50,Fatty acid synthase [13],8.73 µM (active)
CC(C)(C)c1cc(-c2csc(Nc3ccccc3)[n+]2Cc2ccc(C(=O)O)cc2)cc(C(C)(C)C)c1O,IC50,[14],20.7 µM (active)
same,EC50,Streptococcus,2.87 µM (active)
same,EC50,Streptokinase A,> 150 µM (not active)
same,EC50,[15],1.64 µM (active)
same,IC50,[16],2.01 µM (active)
COc1ccc(/C=C/C(=O)Nc2cc(C(F)(F)F)ccc2Cl)cc1OC,IC50,[17],27.9 µM (active)
N#Cc1nc(COc2ccc(Cl)cc2)oc1N1CCCCCC1,IC50,[18],6.66 µM (active)
same,IC50,[19],16.1 µM (not active)
CNC(=O)c1ccc(CN(C)CC(=O)c2cc(C)n(Cc3ccccc3)c2C)cc1,EC50,[20],> 30 µM (not active)

# — ChEMBL document CHEMBL1201862, “PubChem BioAssay data set” (2004)
